Laboratory results published in ChEMBL document CHEMBL4765318 (Eur J Med Chem, 2020).
Activity calls are given as the source filed them. The calls are words filed in the database; no cut-off is given here.

How the values were obtained:
[1] = biological target: T1, Tyrosine-protein kinase BTK (Homo sapiens, UniProt Q06187); experiment: Inhibition of BTK in human Ramos cells assessed as reduction in PLCgamma2 phosphorylation at Tyr557 residue at 3 uM incubated for 24 hrs by Western blot analysis; type: cell-based
[2] = biological target: T1, Tyrosine-protein kinase BTK; experiment: Inhibition of BTK in human Ramos cells assessed as reduction in BTK phosphorylation at Tyr223 residue at 10 uM incubated for 24 hrs by Western blot analysis; type: cell-based
Ramos [3] = experiment: Induction of apoptosis in human Ramos cells assessed as late apoptotic cells at 5 uM incubated for 24 hrs by annexin V-FITC and PI staining based flow cytometry analysis (reference value: 2.2 %); type: functional
[4] = biological target: Tyrosine-protein kinase Blk (Homo sapiens, UniProt P51451); experiment: Inhibition of BLK (unknown origin) by ADP-Glo assay
[5] = biological target: Proto-oncogene tyrosine-protein kinase Src (Homo sapiens, UniProt P12931); experiment: Inhibition of SRC (unknown origin) by ADP-Glo assay
[6] = biological target: T1, Tyrosine-protein kinase BTK; experiment: Inhibition of BTK in human TMD8 cells assessed as reduction in cell proliferation incubated for 24 hrs by CCK-8 assay; type: cell-based
Ramos [7] = experiment: Induction of apoptosis in human Ramos cells assessed as early apoptotic cells at 5 uM incubated for 24 hrs by annexin V-FITC and PI staining based flow cytometry analysis (reference value: 1.9 %); type: functional
Raji = experiment: Antiproliferative activity against human Raji cells assessed as reduction in cell viability incubated for 24 hrs by CCK-8 assay; type: functional, cell-based
Ramos [8] = experiment: Antiproliferative activity against human Ramos cells assessed as reduction in cell viability incubated for 24 hrs by CCK-8 assay; type: functional, cell-based
Ramos [9] = experiment: Induction of apoptosis in human Ramos cells assessed as viable cells at 5 uM incubated for 24 hrs by annexin V-FITC and PI staining based flow cytometry analysis (reference value: 93.8 %); type: functional
Ramos [10] = experiment: Induction of cell cycle arrest in human Ramos cells assessed as G2/M phase accumulation at 5 uM incubated for 24 hrs by PI staining based flow cytometry analysis (reference value: 20.96 %); type: functional
[11] = biological target: Epidermal growth factor receptor (Homo sapiens, UniProt P00533); experiment: Inhibition of EGFR (unknown origin) by ADP-Glo assay
Ramos [12] = experiment: Induction of apoptosis in human Ramos cells assessed as necrotic cells at 5 uM incubated for 24 hrs by annexin V-FITC and PI staining based flow cytometry analysis (reference value: 2.1 %); type: functional
[13] = biological target: T2, Tyrosine-protein kinase ITK/TSK (Homo sapiens, UniProt Q08881); experiment: Inhibition of ITK (unknown origin) by ADP-Glo assay
T2 sequence (Q08881 whole entry): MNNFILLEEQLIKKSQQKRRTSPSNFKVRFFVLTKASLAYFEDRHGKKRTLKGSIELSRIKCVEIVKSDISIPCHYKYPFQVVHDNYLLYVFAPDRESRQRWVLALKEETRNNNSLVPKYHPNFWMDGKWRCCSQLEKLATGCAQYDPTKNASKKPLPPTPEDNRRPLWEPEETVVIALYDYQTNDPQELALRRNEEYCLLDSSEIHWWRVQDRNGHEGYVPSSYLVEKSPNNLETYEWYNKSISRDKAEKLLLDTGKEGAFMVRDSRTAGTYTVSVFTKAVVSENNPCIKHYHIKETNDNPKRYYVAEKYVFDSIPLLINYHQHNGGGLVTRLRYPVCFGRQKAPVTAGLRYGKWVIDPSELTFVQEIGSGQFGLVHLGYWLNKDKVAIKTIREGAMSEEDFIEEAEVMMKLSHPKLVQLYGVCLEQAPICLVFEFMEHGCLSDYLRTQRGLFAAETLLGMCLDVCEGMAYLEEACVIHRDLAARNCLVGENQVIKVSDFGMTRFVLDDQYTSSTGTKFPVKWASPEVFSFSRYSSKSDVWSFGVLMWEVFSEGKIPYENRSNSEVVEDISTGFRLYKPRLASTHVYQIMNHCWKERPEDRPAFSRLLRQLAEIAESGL

Ramos [14] = experiment: Induction of cell cycle arrest in human Ramos cells assessed as subG1 phase accumulation at 5 uM incubated for 24 hrs by PI staining based flow cytometry analysis (reference value: 2.53 %); type: functional
[15] = biological target: T1, Tyrosine-protein kinase BTK; experiment: Inhibition of BTK in human Ramos cells assessed as reduction in BTK phosphorylation at Tyr223 residue at 10 uM incubated for 4 hrs by Western blot analysis relative to control; type: cell-based
Ramos [16] = experiment: Induction of cell cycle arrest in human Ramos cells assessed as S phase accumulation at 5 uM incubated for 24 hrs by PI staining based flow cytometry analysis (reference value: 37.38 %); type: functional
[17] = biological target: T1, Tyrosine-protein kinase BTK; experiment: Inhibition of BTK (unknown origin) by ADP-Glo assay
Ramos [18] = experiment: Induction of cell cycle arrest in human Ramos cells assessed as G0/G1 phase accumulation at 5 uM incubated for 24 hrs by PI staining based flow cytometry analysis (reference value: 39.13 %); type: functional
[19] = biological target: T1, Tyrosine-protein kinase BTK; experiment: Inhibition of BTK in human Ramos cells assessed as reduction in BTK phosphorylation at Tyr223 residue at 10 uM incubated for 4 hrs followed by compound wash-out and measured upto 24 hrs by Western blot analysis; type: cell-based
[20] = biological target: T1, Tyrosine-protein kinase BTK; details: dose 100.0 nM
Description: Inhibition of BTK (unknown origin) at 100 nM by ADP-Glo assay relative to control

T1 sequence (Q06187 whole entry): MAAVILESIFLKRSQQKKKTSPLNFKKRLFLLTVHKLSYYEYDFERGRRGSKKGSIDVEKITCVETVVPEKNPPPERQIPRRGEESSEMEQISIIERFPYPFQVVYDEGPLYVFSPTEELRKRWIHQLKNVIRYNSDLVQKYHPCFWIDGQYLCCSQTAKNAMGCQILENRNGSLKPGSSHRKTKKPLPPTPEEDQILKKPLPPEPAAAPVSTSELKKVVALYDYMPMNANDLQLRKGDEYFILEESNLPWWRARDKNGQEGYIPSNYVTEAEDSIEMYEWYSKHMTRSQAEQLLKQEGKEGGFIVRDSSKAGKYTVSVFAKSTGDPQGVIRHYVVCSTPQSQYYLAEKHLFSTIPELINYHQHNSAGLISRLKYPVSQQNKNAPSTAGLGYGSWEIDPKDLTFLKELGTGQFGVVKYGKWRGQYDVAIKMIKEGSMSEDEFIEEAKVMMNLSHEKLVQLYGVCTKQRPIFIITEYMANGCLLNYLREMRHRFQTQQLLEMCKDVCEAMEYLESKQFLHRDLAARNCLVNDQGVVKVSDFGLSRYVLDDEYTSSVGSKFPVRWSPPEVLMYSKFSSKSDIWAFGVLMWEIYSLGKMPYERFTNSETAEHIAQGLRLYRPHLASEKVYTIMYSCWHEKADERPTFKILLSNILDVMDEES
Epidermal growth factor receptor, sequence (P00533 whole entry): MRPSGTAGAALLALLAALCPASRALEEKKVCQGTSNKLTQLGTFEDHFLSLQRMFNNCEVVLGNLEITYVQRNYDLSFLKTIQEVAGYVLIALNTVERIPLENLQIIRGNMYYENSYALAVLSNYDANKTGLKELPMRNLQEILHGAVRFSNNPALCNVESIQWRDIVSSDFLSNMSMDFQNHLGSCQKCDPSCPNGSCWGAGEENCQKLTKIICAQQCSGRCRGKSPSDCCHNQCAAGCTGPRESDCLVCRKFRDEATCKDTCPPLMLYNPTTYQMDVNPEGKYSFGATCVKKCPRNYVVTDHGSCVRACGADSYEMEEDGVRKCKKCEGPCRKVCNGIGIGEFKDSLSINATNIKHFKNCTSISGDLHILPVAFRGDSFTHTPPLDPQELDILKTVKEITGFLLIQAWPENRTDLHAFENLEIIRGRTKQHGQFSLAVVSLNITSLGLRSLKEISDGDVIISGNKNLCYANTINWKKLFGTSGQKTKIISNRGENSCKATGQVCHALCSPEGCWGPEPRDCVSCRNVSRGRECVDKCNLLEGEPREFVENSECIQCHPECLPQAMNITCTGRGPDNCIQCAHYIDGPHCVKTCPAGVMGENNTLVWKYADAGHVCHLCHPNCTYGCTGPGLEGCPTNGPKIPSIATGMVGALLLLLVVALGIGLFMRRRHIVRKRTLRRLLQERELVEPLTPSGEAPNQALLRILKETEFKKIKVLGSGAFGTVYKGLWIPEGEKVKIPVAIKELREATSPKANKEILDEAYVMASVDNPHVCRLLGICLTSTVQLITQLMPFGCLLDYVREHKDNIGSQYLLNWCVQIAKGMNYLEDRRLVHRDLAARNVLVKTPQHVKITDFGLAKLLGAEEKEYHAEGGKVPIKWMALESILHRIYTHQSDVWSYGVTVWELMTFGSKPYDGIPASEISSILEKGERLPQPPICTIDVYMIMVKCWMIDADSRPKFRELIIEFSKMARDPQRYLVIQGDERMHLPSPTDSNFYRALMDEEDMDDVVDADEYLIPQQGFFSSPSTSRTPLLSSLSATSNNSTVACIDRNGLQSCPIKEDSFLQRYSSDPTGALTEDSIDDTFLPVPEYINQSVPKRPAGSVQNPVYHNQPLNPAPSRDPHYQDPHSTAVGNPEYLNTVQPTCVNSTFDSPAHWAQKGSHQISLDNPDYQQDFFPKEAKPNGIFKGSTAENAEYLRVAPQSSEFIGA
Tyrosine-protein kinase Blk, sequence (P51451 whole entry): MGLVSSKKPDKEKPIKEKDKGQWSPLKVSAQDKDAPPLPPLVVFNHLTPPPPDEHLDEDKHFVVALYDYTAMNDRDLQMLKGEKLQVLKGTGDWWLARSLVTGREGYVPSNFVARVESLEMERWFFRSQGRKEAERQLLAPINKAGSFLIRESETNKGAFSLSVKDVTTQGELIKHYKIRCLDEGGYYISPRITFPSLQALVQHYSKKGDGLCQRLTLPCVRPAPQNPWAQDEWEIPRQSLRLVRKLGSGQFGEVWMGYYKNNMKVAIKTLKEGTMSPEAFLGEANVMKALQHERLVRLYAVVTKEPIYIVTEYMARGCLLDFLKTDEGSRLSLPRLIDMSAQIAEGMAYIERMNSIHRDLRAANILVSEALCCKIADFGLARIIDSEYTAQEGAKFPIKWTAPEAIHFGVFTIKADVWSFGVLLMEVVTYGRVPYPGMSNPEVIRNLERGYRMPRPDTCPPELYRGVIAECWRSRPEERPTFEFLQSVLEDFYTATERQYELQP
Proto-oncogene tyrosine-protein kinase Src, sequence (P12931 2-536 limits assumed): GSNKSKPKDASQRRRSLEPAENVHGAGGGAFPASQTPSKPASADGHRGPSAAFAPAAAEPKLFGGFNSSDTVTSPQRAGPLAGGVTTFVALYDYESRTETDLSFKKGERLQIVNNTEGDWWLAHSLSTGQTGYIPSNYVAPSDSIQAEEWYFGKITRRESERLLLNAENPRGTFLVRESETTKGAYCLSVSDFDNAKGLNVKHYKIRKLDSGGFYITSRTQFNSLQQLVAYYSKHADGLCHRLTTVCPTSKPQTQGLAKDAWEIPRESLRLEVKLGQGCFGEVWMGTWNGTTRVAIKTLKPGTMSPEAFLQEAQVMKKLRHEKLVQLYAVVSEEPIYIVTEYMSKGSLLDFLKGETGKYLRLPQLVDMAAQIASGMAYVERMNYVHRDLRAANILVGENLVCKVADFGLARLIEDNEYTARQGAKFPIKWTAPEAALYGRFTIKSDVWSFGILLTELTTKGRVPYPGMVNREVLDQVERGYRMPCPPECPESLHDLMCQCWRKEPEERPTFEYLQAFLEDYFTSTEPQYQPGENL

IC50 (Raji)	IC50 (Ramos [8])	inhibition [20]	Structure (SMILES)	further results
5.14 µM	6.14 µM	91.1%	C=CC(=O)Nc1cccc(Nc2ncnc(Nc3ccc(C(=O)N4CCCCC4)cc3)n2)c1	inhibition [1]: Active; inhibition [2]: Active; Activity (Ramos [3]): 10.8%; IC50 [4]: 0.594 µM; IC50 [5]: 0.524 µM; inhibition [6]: Dose-dependent effect; Activity (Ramos [7]): 2.1%; viability at 5 µM (Ramos [9]; Homo sapiens, Ramos, read-out: Activity): 84.7%; Activity (Ramos [10]): 25.14%; IC50 [11]: 0.031 µM; Activity (Ramos [12]): 2.4%; IC50 [13]: 2.62 µM; Activity (Ramos [14]): 10.43%; inhibition [15]: 100%; Activity (Ramos [16]): 35.2%; IC50 [17]: 0.021 µM; Activity (Ramos [18]): 29.23%; inhibition [19]: Active
15.6 µM	–	56.3%	C=CC(=O)Nc1cccc(Nc2ncnc(Nc3ccc(C(=O)Nc4ccccn4)cc3)n2)c1	–
125 µM	> 100 µM	41.6%	C=CC(=O)Nc1cccc(Nc2ncnc(Nc3ccc(C(=O)Nc4ccc(C)cn4)cc3)n2)c1	–
13.8 µM	13.2 µM	4.8%	C/C=C/C(=O)Nc1cccc(Nc2ncnc(Nc3ccc(C(=O)N4CCCCC4)cc3)n2)c1	IC50 [17]: > 1 µM
4.62 µM	24.4 µM	8.9%	CC#CC(=O)Nc1cccc(Nc2ncnc(Nc3ccc(C(=O)N4CCCCC4)cc3)n2)c1	IC50 [17]: > 1 µM
12.4 µM	> 100 µM	66.6%	C=CC(=O)Nc1cccc(Nc2ncnc(Nc3ccc(-c4cccnc4)cc3)n2)c1	–
15.7 µM	12.3 µM	7.3%	C=CC(=O)Nc1cccc(Nc2nc(Cl)nc(Nc3ccc(Oc4ccccc4)cc3)n2)c1	–
2.84 µM	–	75.8%	C=CC(=O)N1CCc2ccc(Nc3ncnc(Nc4ccc(C(=O)N5CCCCC5)cc4)n3)cc21	IC50 [17]: 0.0543 µM
22.2 µM	13.2 µM	77.5%	C=CC(=O)Nc1cccc(Nc2ncnc(Nc3ccc(C(=O)N4CCOCC4)cc3)n2)c1	–
–	–	32.7%	C=CC(=O)Nc1cccc(Nc2ncnc(Nc3ccc(-c4ccc(OC)nc4)cc3)n2)c1	–
18.3 µM	18.9 µM	27.7%	C=CC(=O)Nc1cccc(Nc2nc(N)nc(Nc3ccc(OCCOC)cc3)n2)c1	–
–	160 µM	36.7%	C=CC(=O)Nc1cccc(Nc2ncnc(Nc3ccc(-c4ccc(Cl)nc4)cc3)n2)c1	–
30.6 µM	48.5 µM	39.1%	C=CC(=O)Nc1cc(Nc2ncnc(Nc3ccc(C(=O)N4CCCCC4)cc3)n2)ccc1C	IC50 [17]: 0.146 µM
–	–	10%	C=CC(=O)Nc1cccc(Nc2nc(Cl)nc(Nc3ccc(OCCOC)cc3)n2)c1	–
105 µM	181 µM	57.1%	C=CC(=O)Nc1cccc(Nc2ncnc(Nc3ccc(OCCOC)cc3)n2)c1	–
–	> 100 µM	23.4%	C=CC(=O)Nc1cccc(Nc2ncnc(Nc3ccc(Oc4ccc(OC)cc4)cc3)n2)c1	–
13.8 µM	–	55.7%	C=CC(=O)Nc1cccc(Nc2ncnc(Nc3ccc(-c4ccc(C)nc4)cc3)n2)c1	–
3.25 µM	59.2 µM	46.8%	C=CC(=O)Nc1cccc(Nc2ncnc(Nc3ccc(-c4ccc(F)nc4)cc3)n2)c1	–
8.32 µM	20 µM	17.1%	C=CC(=O)Nc1cccc(Nc2nc(N)nc(Nc3ccc(Oc4ccccc4)cc3)n2)c1	–

Structure (SMILES)	IC50 (Raji)	IC50 (Ramos [8])	inhibition [20]	further results
C=CC(=O)N1CCC[C@@H](n2nc(-c3ccc(Oc4ccccc4)cc3)c3c(N)ncnc32)C1 [IBRUTINIB]	12.6 µM	1.35 µM	–	Activity (Ramos [3]): 12.5%; Activity (Ramos [7]): 1.9%; Activity (Ramos [9]): 82.1%; Activity (Ramos [10]): 26.95%; Activity (Ramos [12]): 3.5%; Activity (Ramos [14]): 15.11%; Activity (Ramos [16]): 29.22%; Activity (Ramos [18]): 28.72%
